Assay results reported in US8138159B2, “Composition for inhibiting function of human Flt3” (Takara Bio Inc., priority 2003, dated 2012).
Marks after values point to notes of the source that are not given here.

Experiments:
Format in all cases: cell-based, human
[1] = tested on: MV4-11 (ITD mutation) cells; test: growth inhibition by siRNA3 in combination with kinase inhibitor AG1295, WST-1 (Example 4); conditions: Homo sapiens, MV4-11, kinase inhibitor alone (control siRNA), 72 hours, n=6 mean, read-out: growth inhibition as compared with the cells transfected with the control siRNA/0 μM AG1295
Protocol: The growth inhibitory activity of treatment with a combination of the composition (synthesized siRNA3) of the present invention and a kinase inhibitor on MV4-11 (ITD mutation) cells was examined. The synthesized siRNA3 used was the same as in item (1) of Example 1 above. As the kinase inhibitor, AG1295 (manufactured by CALBIOCHEM) having high specificity to ITD mutation cells was used.
In the same manner as in item (2) of Example 1 above, MV4-11 cells were cultured at 37° C. for 24 hours in a medium obtained by supplementing 10% by volume fetal bovine serum (FBS) to an RPMI 1640 medium (manufactured by TAKARA BIO INC.) (referred to hereinafter as a culture medium) in the presence of 5% by volume CO2. Then, the MV4-11 cells (1×10^6 cells/ml) suspended in Opti-MEM (trade name, manufactured by Invitrogen) were transferred to a cuvette (manufactured by BIO RAD; gap of 4 mm), and siRNA3 was added to the cuvette so as to give a final concentration of 1.2 μM. Then, the cuvette was set in Gene Pulser Xcell (trade name, manufactured by BIO RAD) and thereafter pulsed with electric field intensity of 650 V/cm for 25 msec. Then, the suspension of the cells in the cuvette was added to, and suspended in, a 4-fold excess volume of the culture medium and dispensed onto a 96-well plate so as to give an amount of 100 μl/well. […]
4 mM AG1295 (dissolved in DMSO) was diluted with the above-mentioned culture medium to prepare AG1295 dilutions at a concentration of 10 μM, 6 μM and 0 μM (0.25% by volume DMSO) and added so as to give an amount of 100 μl/well to the 96-well plate prepared in step (2) above and cultured at 37° C. in the presence of 5% by volume CO2. Seventy-two hours after the culture was initiated, the growth activity of the cells was determined using Premix WST-1 reagent (trade name, manufactured by TAKARA BIO INC.) according to a manufacturer's protocol. Each experiment was carried out with n=6, and the mean was determined. The relative growth ratio (%) to the growth ability of the cells transfected with the control siRNA/0 μM AG1295 was determined. […]

Flt3 mRNA = Flt3 mRNA interference by synthesized siRNA, real-time RT-PCR (Example 1); conditions: for inhibition percentage (%) of the relative mRNA expression level (Flt3 mRNA/GAPDH mRNA): siRNA 200 pmol, Oligofectamin, after 24 hours, vs cells transfected without siRNA
Protocol: Each kind of cell selected from HL-60 cells [Flt3 WT (wild-type) low expressing cells; ATCC CCL-240], EoL-1 cells [Flt3 WT (wild-type) highly expressing cells; ECACC 94042252] and MV4-11 cells [Flt3/ITD highly expressing cells; ATCC CRL-9591] was cultured at 37° C. in an RPMI 1640 medium (manufactured by TAKARA BIO INC.) supplemented with 10% by volume fetal bovine serum (FBS) in the presence of 5% by volume CO2.
Then, the cells (2×10^5 cells/nil) were pre-cultured for 24 hours in a 6-well plate, then recovered, and suspended so as to give a density of 1.5×10^5 cells/ml in Opti-MEM (trade name, manufactured by Invitrogen), and the synthesized siRNA was added to the resulting suspension so as to give a final concentration of 200 pmol. Transfection was carried out using Oligofectamin (trade name, manufactured by Invitrogen) in an amount of 4 μl/reaction, according to an Invitrogen's protocol attached to Oligofectamin (trade name). As a control, the cells were subjected to similar operations without adding the siRNA. The unspecific influence of the siRNA was evaluated using an siRNA to a BCR/ABL chimera mRNA.
Confirmation of RNA interference of the target gene was carried out by determining change in mRNA level by a real-time RT-PCR method as shown below.
Using Oligofectamin (trade name, manufactured by Invitrogen), each kind of cell was transfected with the synthesized siRNA. After 24 hours, whole RNA was extracted from the resulting cells with TRIzol™ reagent (manufactured by Invitrogen), and the resulting product was treated with DNaseI (manufactured by TAKARA BIO INC.). The transfection, the extraction of the whole RNA and the treatment with DNaseI were carried out according to a manufacturer's protocol of the reagent used.
The real-time PCR method was carried out using a Real Time One Step RNA PCR Kit (trade name, manufactured by TAKARA BIO INC.), 100 ng of the resulting RNA as a template and a pair of primers (each 20 pmol), that is, an oligonucleotide having the nucleotide sequence of SEQ ID NO: 13 and an oligonucleotide having the nucleotide sequence of SEQ ID NO: 14. In the real-time RT-PCR method, change in fluorescence based on SYBER Green I (manufactured by TAKARA BIO INC.) was determined with Light Cycler (trade name, manufactured by Roche). The RNA level was standardized by similarly determining GAPDH mRNA with primers set forth in SEQ ID NOs: 15 and 16.
The PCR conditions were as follows: after incubation was carried out at 95° C. for 30 seconds, the reaction was carried out in 40 cycles each consisting of the reaction at 95° C. for 1 second, then at 60° C. for 10 seconds, and at 72° C. for 30 seconds.
The inhibition percentage (%) of the relative mRNA expression level (Flt3 mRNA/GAPDH mRNA) changed by using the synthesized siRNA, as calculated assuming that the relative mRNA expression level (Flt3 mRNA/GAPDH mRNA) of the cells only subjected to each operation of the transfection without adding the synthesized siRNA was 100%, was shown in Table 1.

[2] = tested on: EoL1 cells (WT-highly expressing); test: cell growth activity, Premix WST1 (Example 2); conditions: for Relative growth ability (%) compared with the control: siRNA 10 nM, after 20 hours, n=3 mean, control = transfection without siRNA
Protocol: (§1) The cells placed in a 96-well plate at a density of 2×10^4 cells/well were cultured in an RPMI medium (containing 10% by volume FBS). The cells were transfected with each of the synthesized (10 nM each) siRNAs, and after 20 hours, the cell growth activity was determined with Premix WST1 reagent (trade name, manufactured by TAKARA BIO INC.). Relative growth ability (%) compared with the growth ability of the control (cells subjected to transfection without adding an siRNA) was determined. Each experiment was carried out with n=3, and the mean was determined.

[3] = tested on: HL60 cells (WT-low expressing); test: cell growth activity, Premix WST1 (Example 2); conditions: for Ratio of cell-growth activation defining RNA interference effect in HL60 as 1: HL60, the reference itself; for Relative growth ability (%) compared with the control: HL60, siRNA 10 nM, after 20 hours, n=3 mean, control = transfection without siRNA
Protocol: as §1

[4] = tested on: MV4-11 cells (ITD mutation-highly expressing); test: cell growth activity, Premix WST1 (Example 2); conditions: for Relative growth ability (%) compared with the control: siRNA 10 nM, after 20 hours, n=3 mean, control = transfection without siRNA
Protocol: as §1

[5] = EoL1 (WT-highly expressing), the reference itself
[6] = MV4-11 (ITD mutation-highly expressing)

| Compound | inhibition at 3 µM ([1]; 3.0 μM) | inhibition at 5 µM ([1]; 5.0 μM) | Relative ratio of inhibition defining RNA interference effect in EoL1 as 1 (Flt3 mRNA; [5]) | inhibition percentage (%) of the relative mRNA expression level (Flt3 mRNA/GAPDH mRNA) (Flt3 mRNA; EoL1 (WT-highly expressing)) | inhibition percentage (%) of the relative mRNA expression level (Flt3 mRNA/GAPDH mRNA) (Flt3 mRNA; HL60 (WT-low expressing)) | Relative ratio of inhibition defining RNA interference effect in EoL1 as 1 (Flt3 mRNA; [6]) | inhibition percentage (%) of the relative mRNA expression level (Flt3 mRNA/GAPDH mRNA) (Flt3 mRNA; [6]) | selective inhibition of Flt3 mRNA expression relative to the inhibition ratio in the cells without ITD mutation (WT) (Flt3 mRNA; cells having ITD mutation vs WT cells) | Ratio of cell-growth activation defining RNA interference effect in HL60 as 1 [2] | Relative growth ability (%) compared with the control [2] | Ratio of cell-growth activation defining RNA interference effect in HL60 as 1 [3] | Relative growth ability (%) compared with the control [3] | Ratio of cell-growth activation defining RNA interference effect in HL60 as 1 [4] | Relative growth ability (%) compared with the control [4] | inhibition of Flt3 mRNA expression relative to the cells without using an siRNA (Flt3 mRNA; all cells (MV4-11, EoL1, HL60)) | inhibition of Flt3 mRNA expression (in words) (Flt3 mRNA; siRNA irrelevant to Flt3 mRNA, sequence specificity) |
| --- | --- | --- | --- | --- | --- | --- | --- | --- | --- | --- | --- | --- | --- | --- | --- | --- |
| Cc1cc2ncc(-c3ccccc3)nc2cc1C [AG1295] | 59.8% | 84.3% |  |  |  |  |  |  |  |  |  |  |  |  |  |  |
| siRNA1: siRNA to ATP-binding site region of Flt3 (target SEQ ID NO: 1); sense SEQ ID NO: 2, antisense SEQ ID NO: 3 (sense GGUACUAGGAUCAGGUGCUTT; antisense AGCACCUGAUCCUAGUACCTT; chemistry not given here) |  |  | (1)* | 41% | 31% | (1.6) | 65% | ≥ 1.6 fold | (0.60) | 68.5% | (1)* | 116% | (0.49) | 56.4% |  |  |
| siRNA2: siRNA to TK (kinase) region of Flt3 (target SEQ ID NO: 4); sense SEQ ID NO: 5, antisense SEQ ID NO: 6 (sense CAGGAGUCUCAAUCCAGGUTT; antisense ACCUGGAUUGAGACUCCUGTT; chemistry not given here) |  |  | (1) | 54% | 46% | (1) | 54% |  | (0.70) | 79.7% | (1) | 115% | (0.36) | 41.4% | around 50% |  |
| siRNA4: siRNA to BCR/ABL chimera mRNA (target SEQ ID NO: 10); sense SEQ ID NO: 11, antisense SEQ ID NO: 12; unspecific control (sense GCAGAGUUCAAAAGCCCUUTT; antisense AAGGGCUUUUGAACUCUGCTT; chemistry not given here) [reference compound] |  |  |  | 8% | 7% |  | 5% |  |  |  |  |  |  |  |  | did not occur |
